Here are results for 23 molecules from ChEMBL document CHEMBL1123967, “New potent antagonists of leukotrienes C4 and D4. 1. Synthesis and structure-activity relationships” (J Med Chem, 1988).

Test [1] concerns the target Cysteinyl leukotriene receptor (Homo sapiens) (UniProt Q9Y271+Q9NS75). The test can be described thus: In vivo inhibition of LTD4-induced bronchoconstriction in anesthetized guinea pig. The class given is functional, organism-based. To be noted: Cavia porcellus; target entry is the homologue from another species.
Test [2] concerns the target T1, Cysteinyl leukotriene receptor (Homo sapiens, UniProt Q9Y271+Q9NS75).
T1 sequence (Q9Y271 whole entry): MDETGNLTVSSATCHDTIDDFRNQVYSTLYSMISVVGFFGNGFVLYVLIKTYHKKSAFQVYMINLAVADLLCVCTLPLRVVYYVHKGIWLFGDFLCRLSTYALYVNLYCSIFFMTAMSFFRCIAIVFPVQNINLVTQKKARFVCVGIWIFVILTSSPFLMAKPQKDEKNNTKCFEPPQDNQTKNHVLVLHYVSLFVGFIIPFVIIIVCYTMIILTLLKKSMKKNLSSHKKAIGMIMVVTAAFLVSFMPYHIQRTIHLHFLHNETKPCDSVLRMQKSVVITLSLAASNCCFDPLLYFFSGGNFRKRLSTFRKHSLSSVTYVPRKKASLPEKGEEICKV
T1 sequence (Q9NS75 whole entry): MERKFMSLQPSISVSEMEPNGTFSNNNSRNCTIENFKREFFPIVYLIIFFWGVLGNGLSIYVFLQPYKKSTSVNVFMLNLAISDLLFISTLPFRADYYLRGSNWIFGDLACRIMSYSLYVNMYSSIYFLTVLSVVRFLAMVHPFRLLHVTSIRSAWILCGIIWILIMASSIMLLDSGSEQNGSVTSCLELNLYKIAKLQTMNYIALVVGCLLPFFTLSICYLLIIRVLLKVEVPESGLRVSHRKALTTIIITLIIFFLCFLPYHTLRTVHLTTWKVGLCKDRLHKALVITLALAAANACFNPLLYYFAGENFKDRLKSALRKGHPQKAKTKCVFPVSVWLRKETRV
Kind of test: Inhibition of LTC4 induced smooth muscle contraction of guinea pig ileum. The class given is functional, tissue-based, Cavia porcellus. The following applies: target entry is the homologue from another species.

Test [3] deals with Cavia porcellus. The test can be described thus: Inhibition of LTD4 (5 ng/site) induced vascular permeability in guinea pig skin at dose 10 mg/kg given perorally. The class given is functional. To be noted: route oral.
The test system of test [4] is Cavia porcellus. The test can be described thus: Inhibition of LTD4 (5 ng/site) induced vascular permeability in guinea pig skin at dose 30 mg/kg given perorally. Type of test: functional. The following applies: route oral.
In test [5] the test system is Cavia porcellus. The test can be described thus: Inhibition of LTC4-induced bronchoconstriction in guinea pig at dose of (0.5 ug/kg) given intravenously. Type of test: functional. The following applies: iv, read-out: ID50 (the source's name).
Test [6] relates to Cavia porcellus. Kind of test: Inhibition of LTD4-induced bronchoconstriction in guinea pig in guinea pig at dose of (0.5 ug/kg) given intravenously. The class given is functional. To be noted: iv, read-out: ID50 (the source's name).
In test [7] the test system is Cavia porcellus. Kind of test: Inhibition of LTD4 (5 ng/site) induced vascular permeability in guinea pig skin at dose 1 mg/kg given perorally. The class given is functional. The following applies: route oral.
In test [8] the test system is Cavia porcellus. The test can be described thus: Inhibition of LTB4 induced bronchoconstriction in guinea pig at dose of 3 ug/kg given intravenously. The class given is functional. The following applies: iv, read-out: ID50 (the source's name).
For test [9], the system named is Cavia porcellus. The test can be described thus: Inhibition of LTD4 (5 ng/site) induced vascular permeability in guinea pig skin at dose 0.3 mg/kg given perorally. The class given is functional. The following applies: route oral.
Test [10] deals with Cavia porcellus. Kind of test: Inhibition of LTE4-induced bronchoconstriction in guinea pig at dose of (1 ug/kg) given intravenously. Type of test: functional. The following applies: iv, read-out: ID50 (the source's name).
The subject of test [11] is Cavia porcellus. The test can be described thus: Inhibition of LTD4-induced bronchoconstriction in guinea pig at dose of (0.5 ug/kg) given intravenously. The class given is functional. To be noted: iv, read-out: ID50 (the source's name).
The test system of test [12] is Cavia porcellus. The test can be described thus: Inhibition of LTB4 induced bronchoconstriction in guinea pig at dose of (1 ug/kg) given intravenously. The class given is functional. The following applies: iv, read-out: ID50 (the source's name).
Test [13] deals with Cavia porcellus. Kind of test: Inhibition of LTE4 induced bronchoconstriction in guinea pig at dose of 1 ug/kg given intravenously. The class given is functional. To be noted: iv, read-out: ID50 (the source's name).
Test [14] has as its system Cavia porcellus. Kind of test: Inhibition of LTD4 induced bronchoconstriction in guinea pig at dose of (0.5 ug/kg) given intravenously. The following applies: iv, read-out: ID50 (the source's name). Type of test: functional.
Test [15] relates to Cavia porcellus. Kind of test: Inhibition of LTC4 induced bronchoconstriction in guinea pig at dose of (0.5 ug/kg) given intravenously. Type of test: functional. To be noted: iv, read-out: ID50 (the source's name).

Where only a bound is given, the exact number is not on record here.

`CCCCCc1ccc(/C=C/C(=O)Nc2cccc3c2OC(c2nnn[nH]2)CO3)cc1` (configuration not stated): the ID50 in test [1] turned out to be 330 µg/kg. In test [2], the IC50 came out at 370 nM.

`CCCC/C=C/COc1ccc(C(=O)Nc2cccc3c(=O)cc(-c4nn[nH]n4)oc23)cc1` displayed an ID50 in test [1] of 1.1 µg/kg. The IC50 in [2] is listed as 0.031 nM.

For `CCCCCc1ccc(/C=C/C(=O)Nc2cccc3c2OC(C(=O)O)CO3)cc1` (configuration not stated), the ID50 in test [1] was found to be 220 µg/kg. This molecule returned an IC50 in [2] of 830 nM.

In turn, `CCCCC/C=C/COc1ccc(C(=O)Nc2cccc3c2OC(c2nnn[nH]2)CO3)cc1` (configuration not stated) showed an inhibition in vivo at 10 mg/kg in the test with Cavia porcellus [3] of 30.4%. In test [1], this molecule had an ID50 of 2 µg/kg. The IC50 in test [2] turned out to be 2 nM. This molecule also returned an inhibition in vivo at 30 mg/kg in the test with Cavia porcellus [4] of under 43.8%.

`CCCCCCCOc1ccc(C(=O)Nc2cccc3c2OC(c2nnn[nH]2)CO3)cc1` (configuration not stated) had an inhibition in vivo at 10 mg/kg with Cavia porcellus [3] of under 46.7%. In addition, the IC50 in test [2] turned out to be 9 nM.

In the case of `CCCCCc1ccc(/C=C/C(=O)Nc2cccc3c(=O)cc(C(=O)O)oc23)cc1`, the ID50 in test [1] stood at 320 µg/kg. The IC50 in [2] came to 240 nM.

On to `CCCCCC/C=C/COc1ccc(C(=O)Nc2cccc3c2OC(c2nnn[nH]2)CO3)cc1` (configuration not stated), for which the ID50 in test [1] was 4.1 µg/kg. Besides, the IC50 in [2] is 5.2 nM.

For the molecule `CCCCCC#CCOc1ccc(C(=O)Nc2cccc3c2OC(c2nnn[nH]2)CO3)cc1` (configuration not stated), the ID50 in test [1] amounted to 6.4 µg/kg. Besides, the IC50 in [2] was determined as 0.67 nM.

For the molecule `O=C(Nc1cccc2c(=O)cc(-c3nnn[nH]3)oc12)c1ccc(OCCCCc2ccccc2)cc1`, the ED50 with Cavia porcellus [5] is 0.0008 mg/kg; in the test on Cavia porcellus [6] it was 1 µg/kg; in the test on Cavia porcellus [8] it was over 0.5 mg/kg; with Cavia porcellus [10], 0.0007 mg/kg. Besides, the ID50 in test [1] is 0.8 µg/kg. The same molecule showed an inhibition in vivo at 1 mg/kg in the test with Cavia porcellus [7] of 75.2%. In the test with Cavia porcellus [9], this molecule yielded an inhibition in vivo at 0.3 mg/kg of 74.7%.

`CCCC/C=C/COc1ccc(C(=O)Nc2cccc3c2OC(c2nnn[nH]2)CO3)cc1` (configuration not stated) returned an ID50 in test [1] of 5.5 µg/kg. Moreover, the IC50 in test [2] was 0.47 nM.

As for `CCCc1c(OCC(O)COc2ccc3c(=O)cc(C(=O)[O-])oc3c2CCC)ccc(C(C)=O)c1O.[Na+]` (configuration not stated) [FPL-55712 SODIUM SALT], the ED50 was 0.155 mg/kg in the test on Cavia porcellus [5], 0.44 mg/kg in the test on Cavia porcellus [11], over 0.5 mg/kg with Cavia porcellus [12] and 0.211 mg/kg in the test with Cavia porcellus [10]. This molecule also returned an ID50 in test [1] of 500 µg/kg.

As to `C=CCCC/C=C/COc1ccc(C(=O)Nc2cccc3c(=O)cc(-c4nn[nH]n4)oc23)cc1`, the ID50 in [1] was determined as 1.2 µg/kg. This molecule also had an IC50 in test [2] of 0.16 nM. Besides, the inhibition in vivo at 0.3 mg/kg in the test on Cavia porcellus [9] was under 44.6%.

Regarding `CCCCCc1ccc(/C=C/C(=O)Nc2ccccc2OCC(=O)O)cc1`, the ID50 in test [1] was found to be 4200 µg/kg. The molecule further displayed an IC50 in test [2] of 9000 nM.

In the test on Cavia porcellus [3], `C=CCCC/C=C/COc1ccc(C(=O)Nc2cccc3c2OC(c2nnn[nH]2)CO3)cc1` (configuration not stated) gave an inhibition in vivo at 10 mg/kg of 2.9%. In test [2], this molecule registered an IC50 of 1.1 nM.

The molecule `CCCCCC#CCOc1ccc(C(=O)Nc2cccc3c(=O)cc(-c4nn[nH]n4)oc23)cc1` registered an ID50 in [1] of 1.1 µg/kg. In [2], this molecule registered an IC50 of 0.14 nM.

`O=C(Nc1cccc2c1OC(c1nnn[nH]1)CO2)c1ccc(OCCCCc2ccccc2)cc1` (configuration not stated) displayed an inhibition in vivo at 10 mg/kg in the test with Cavia porcellus [3] of 61.8%. The ED50 with Cavia porcellus [13] was 2 µg/kg; in the test with Cavia porcellus [14], 4.4 µg/kg; with Cavia porcellus [8], over 0.5 mg/kg; in the test with Cavia porcellus [15], 1.1 µg/kg. For the same molecule, the ID50 in test [1] was 1.2 µg/kg. The molecule further had a 50% inhibitory concentration (IC50) in test [2] of 0.37 nM. Further, the inhibition in vivo at 30 mg/kg in the test with Cavia porcellus [4] stood at 63.2%.

In test [1], `CCCCCc1ccc(/C=C/C(=O)Nc2ccccc2OCc2nn[nH]n2)cc1` showed an ID50 of 500 µg/kg. Further, the IC50 in test [2] is 3000 nM.

`CCCCCc1ccc(/C=C/C(=O)Nc2ccccc2C(=O)O)cc1`: the ID50 in test [1] was determined as 4500 µg/kg. This molecule had an IC50 in [2] of 14000 nM.

`CCCCCc1ccc(/C=C/C(=O)Nc2cccc3c(=O)cc(-c4nn[nH]n4)oc23)cc1`: in [1], the ID50 was found to be 14 µg/kg. The same molecule came in with an IC50 in [2] of 30 nM.

In the test with Cavia porcellus [3], `C=CCCCCCCOc1ccc(C(=O)Nc2cccc3c2OC(c2nnn[nH]2)CO3)cc1` (configuration not stated) came in with an inhibition in vivo at 10 mg/kg of under 75.2%. In test [1], this molecule returned an ID50 of 1.7 µg/kg. The molecule further yielded an IC50 in test [2] of 1.3 nM.

For `CCC/C=C/COc1ccc(C(=O)Nc2cccc3c2OC(c2nnn[nH]2)CO3)cc1` (configuration not stated), the ID50 in test [1] worked out at 13.5 µg/kg. In addition, the IC50 in test [2] turned out to be 4.3 nM.

On to `CCCCC/C=C/COc1ccc(C(=O)Nc2cccc3c(=O)cc(-c4nn[nH]n4)oc23)cc1`, for which the ID50 in test [1] came to 0.72 µg/kg. Besides, in test [2], the IC50 is given as 0.06 nM. Also, 1 mg/kg produced 25% inhibition in vivo in the test with Cavia porcellus [7].

On to `C=CCCCCCCOc1ccc(C(=O)Nc2cccc3c(=O)cc(-c4nn[nH]n4)oc23)cc1`, for which, in [1], the ID50 was 1.9 µg/kg. This molecule registered an IC50 in test [2] of 0.11 nM. In addition, the inhibition in vivo at 1 mg/kg in the test on Cavia porcellus [7] was under 60.7%. In addition, the inhibition in vivo at 0.3 mg/kg with Cavia porcellus [9] is under 46.7%.

As a reminder, the IC50 is the point on the concentration scale where inhibition reaches its midpoint. Higher therefore signals lower potency. As a reminder, the inhibition in vivo is the share of the control response that was lost under treatment. The low end stands for a response near the control, the high end for a response far below the control.
